Test results reported in PubChem BioAssay AID977628 (Broad Institute, 2014).
Records with an inconclusive call do not appear. Activity calls are given as the source filed them.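 Rule for the calls: active = compound lowering the normal-ribosome reporter at least twice as much as the humanized-ribosome reporter, growth loss under a set limit; inconclusive = no clear call, values can overlap the other calls; inactive = the rest.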

Experiments:
Assay in all cases: growth of wild-type and h24-humanized E. coli strains – h24 mutant RFP vs wild-type GFP, cherry-pick, dose response (AID 977628)
[1] = tested on: E. coli WT GFP strain growth, fluorescence, 24 h
[2] = tested on: E. coli h24 humanized mutant RFP strain growth, fluorescence, 24 h
[3] = tested on: E. coli mixed WT/h24 culture total growth, OD600, 24 h

| SMILES | AC50 [1] | AC50 [2] [µM] | AC50 [3] [µM] |
| --- | --- | --- | --- |
| CCOC(=O)[C@]12Cc3ccccc3[C@H]1N(C)C(=O)c1cc(OC)ccc12 | > 100 µM (inactive) | > 100 | – |
| CC(NC(=O)c1ccncc1)c1ccc(Cl)cc1Cl (centres undefined) | – | > 100 | – |
| CCc1cccc(NC(=O)CN(C)S(=O)(=O)c2cccc3cccnc23)c1 | – | > 100 | – |
| CCCC(=O)Nc1cccc(C(=O)Nc2ccccc2OCC)c1 | – | > 100 | – |
| C(=C/c1nccc2c1[nH]c1ccccc12)/c1ccc2c(c1)OCO2 | – | > 100 | – |
| O=C(c1cccs1)c1c[nH]cc1-c1ccccc1 | – | > 100 | – |
| O=C(CSCc1ccc(Br)cc1)NCc1ccccn1 | – | > 100 | – |
| N#Cc1nc(-c2ccco2)oc1NCc1ccccc1Cl | – | > 100 | – |
| O=C(C1Cc2ccccc2CN1C(=O)c1ccccc1)N1CCN(c2ccccc2)CC1 (centres undefined) | – | > 100 | – |
| O=C1c2ccccc2C(c2nnnn2C2CCCCC2)N1CCc1ccc(O)cc1 (centres undefined) | – | > 100 | – |
| COc1ccccc1NC(=O)COC(=O)Cc1c[nH]c2ccccc12 | – | > 100 | – |
| S=C1SCN(Cc2cccnc2)CN1Cc1cccnc1 | – | > 100 | – |
| Cc1cccc(-n2cnc3cc([N+](=O)[O-])ccc32)c1 | – | > 100 | – |
| Nc1ccc(C(=O)OCCc2ccccc2)cc1 | – | > 100 | – |
| Cc1nc2ncnn2c(N2CCC(C(=O)NC3CCCC3)CC2)c1Cc1ccccc1 | – | > 100 | – |
| CSc1nc2nc3c(cc2c(=O)n1-c1ccccc1C)CCCC3 | – | 6.76 | – |
| Cc1ccc(C(=O)Nc2ccc3ncccc3c2)cc1 | – | > 100 | – |
| C#CC(C)(C)NC(=O)c1ccc(-c2ccccc2F)cc1 | – | > 100 | – |
| O=C(Nc1ccc(-c2nnc3n2CCCCC3)cc1)c1cc2ccccc2o1 | – | > 100 | – |
| CC(OC(=O)COc1ccccc1)C(=O)NC1CCCC1 (centres undefined) | – | > 100 | – |
| CC(=O)Nc1cccc(OCc2ccc([N+](=O)[O-])cc2)c1 | – | > 100 | – |
| Cn1ccc2cc(-c3ccc4ncnc(NCc5cccs5)c4c3)ccc21 | – | > 100 | – |
| O=C(O)CC1(CC(=O)Nc2ccc3sccc3c2)CCCCC1 | – | > 100 | – |

| SMILES | AC50 [1] | AC50 [2] [µM] | AC50 [3] [µM] |
| --- | --- | --- | --- |
| O=C(NCCCn1ccnc1)c1sc2cc([N+](=O)[O-])ccc2c1Cl | – | > 100 | – |
| c1ccc(CSCc2ccccc2)cc1 | – | > 100 | – |
| CCOc1ccc(S(=O)(=O)N(C)c2ccc(OCC(=O)NCc3cccnc3)cc2)cc1 | – | > 100 | – |
| O=C(NCc1ccccc1Cl)c1ccc2c(c1)SC1=NS(=O)(=O)CCN12 | – | > 100 | – |
| CN(C)C(=O)C1C2NC(=S)N(c3cccc(Cl)c3)C1(C)Oc1ccc(Cl)cc12 (centres undefined) | > 100 µM (inactive) | – | > 100 |
| CCn1c(-c2ccccc2Cl)nn(CC(=O)Nc2ccccc2OC)c1=S | > 100 µM (inactive) | – | > 100 |
| Cc1cccc(OCCC(=O)Nc2ccc(F)c(F)c2)c1 | > 100 µM (inactive) | – | > 100 |
| CCN(CC(=O)Nc1cccc(C#N)c1)CC(=O)Nc1cccc(OC)c1 | > 100 µM (inactive) | – | > 100 |
| O=C(COc1ccc(Cl)cc1)Nc1ncc([N+](=O)[O-])s1 | > 100 µM (inactive) | – | 40.2 |
| Cn1cnc([N+](=O)[O-])c1Oc1ccccc1 | – | > 100 | – |
| COc1ccc(NS(=O)(=O)c2cccc3ccccc23)cc1 | > 100 µM (inactive) | – | 40.6 |
| CCOC(=O)C(C)Sc1nc(N2CCOCC2)c2c(c1C#N)CC(C)(C)OC2 (centres undefined) | – | > 100 | – |
| Cc1c(C(=O)O)oc2ccc(S(=O)(=O)NC3CCCCCCC3)cc12 | > 100 µM (inactive) | – | 41.4 |
| C=CCn1c(-c2sc(-c3ccccc3)nc2C)n[nH]c1=S | > 100 µM (inactive) | – | > 100 |
| COC(=O)c1cc(C(=O)Cc2ccccc2)c[nH]1 | > 100 µM (inactive) | – | > 100 |
| COc1ccc2c(c1)c1ncn(Cc3ccccn3)c(=O)c1n2C | – | > 100 | – |
| C=CCNC(=O)c1ccccc1CCc1ccccc1 | – | > 100 | – |
| Cc1ccccc1S(=O)(=O)N1C[C@H]2CON(C)[C@H]2C[C@H]1c1cccc(-c2ccc(C#N)cc2)c1 | > 100 µM (inactive) | – | > 100 |
| OCCN(Cc1ccccc1)Cc1ccc(Cl)cc1 | > 100 µM (inactive) | – | > 100 |
| Cc1ccc(NC(=O)CCCSc2ccccc2)cc1S(=O)(=O)N1CCOCC1 | > 100 µM (inactive) | – | > 100 |
| CCOc1cc(/C=C(\CC(=O)O)c2nc3ccccc3s2)ccc1OC | – | > 100 | – |
| CCOc1ccc(OCCn2c(=S)[nH]c3c(N)ncnc32)cc1 | > 100 µM (inactive) | – | 47.8 |
| Cc1cc(C(N)=O)nn1-c1c(Cl)cc(Cl)cc1Cl | > 100 µM (inactive) | – | > 100 |

| SMILES | AC50 [1] | AC50 [2] [µM] | AC50 [3] [µM] |
| --- | --- | --- | --- |
| COCC(C)NC(=O)c1nn(Cc2ccccc2)c(=O)c2ccccc12 (centres undefined) | – | > 100 | – |
| Cc1ccc(OCCn2c(=S)[nH]c3c(N)ncnc32)cc1 | > 100 µM (inactive) | – | 34.3 |
| CCC(=O)Nc1nc2c(OC)ccc(OC)c2s1 | > 100 µM (inactive) | – | > 100 |
| CC(CCc1ccccc1)NC(=O)CNC(=O)COc1ccccc1 (centres undefined) | > 100 µM (inactive) | – | > 100 |
| Nc1[nH]c(C(=O)c2ccccc2)c(-c2ccc(Cl)cc2)c1C(=O)NCCc1c[nH]c2ccccc12 | > 100 µM (inactive) | – | > 100 |
| COc1ccc(NC(=O)CN(c2ccccc2OC)S(=O)(=O)c2cccs2)cc1Cl | > 100 µM (inactive) | – | > 100 |
| Cc1ccc(NC(=O)CN(C)S(=O)(=O)c2cccc3cccnc23)cc1F | > 100 µM (inactive) | – | > 100 |
| Cc1ccc(C)c(-c2[nH]ncc2CN2CCCC(CO)(Cc3ccccc3C)C2)c1 (centres undefined) | > 100 µM (inactive) | – | > 100 |
| CCCn1c(=O)c2ccccc2n2c(SCCOc3ccc(OC)cc3)nnc12 | > 100 µM (inactive) | – | > 100 |
| Nc1[nH]c(C(=O)c2ccccc2)c(-c2ccc(Br)cc2)c1C(=O)c1cccs1 | > 100 µM (inactive) | – | > 100 |
| Cc1cccc(-c2ccc([C@H]3[C@H](CO)N4CCCCN(S(=O)(=O)c5ccccc5C)C[C@@H]34)cc2)c1 | > 100 µM (inactive) | – | > 100 |
| COC(=O)c1c(C)oc(C)c1S(=O)(=O)NC(c1ccccc1)c1ccccc1 | > 100 µM (inactive) | – | 44.4 |
| Cc1cc(Br)cn2c(Cc3cccc(Cl)c3)c(-c3ccco3)nc12 | – | > 100 | – |
| NC(=O)C1CCN(c2cc(Cl)ccc2[N+](=O)[O-])CC1 | > 100 µM (inactive) | – | > 100 |
| CN(Cc1ccccc1)C(=O)c1[nH]cnc1C(=O)NCc1ccccc1 | > 100 µM (inactive) | – | > 100 |
| O=C(COn1nnc2ccc(C(F)(F)F)cc21)Nc1c(Cl)cccc1Cl | > 100 µM (inactive) | – | > 100 |
| Cc1nn(-c2ccccc2)c(C)c1NC(=O)COc1ccc2ccccc2c1 | > 100 µM (inactive) | – | 42.8 |
| O=C(CSCc1cnn(-c2ccccc2)c1-n1cccc1)NCc1cccnc1 | – | > 100 | – |
| Cc1cc(C(=O)COC(=O)c2ccc(Br)o2)c(C)n1C | > 100 µM (inactive) | – | 42.5 |
| Nc1ncncc1-c1ccc(Cl)cc1 | > 100 µM (inactive) | – | > 100 |
| N#CCC(=O)Nc1ccc(C(=O)OCC(=O)Nc2ccc3ccccc3c2)cc1 | > 100 µM (inactive) | – | > 100 |
| CC1CCN(c2ccc3nnc(CCC(=O)Nc4cccc(F)c4)n3n2)CC1 | > 100 µM (inactive) | – | > 100 |
| O=C(CCc1ccccc1)Nc1sc2c(c1C(=O)O)CCCC2 | > 100 µM (inactive) | – | 52.3 |

| SMILES | AC50 [1] | AC50 [2] [µM] | AC50 [3] [µM] |
| --- | --- | --- | --- |
| COc1ccc(OCC(=O)N2c3ccccc3CC2C)c([N+](=O)[O-])c1 (centres undefined) | > 100 µM (inactive) | – | > 100 |
| COC(=O)[C@@H](Cc1c[nH]c2ccccc12)NCc1cccc(B(O)O)c1 | > 100 µM (inactive) | – | > 100 |
| O=C(Nc1ccc(F)cc1)N1CCCCN2[C@@H](CO)[C@H](c3ccc(-c4ccncc4)cc3)[C@@H]2C1 | > 100 µM (inactive) | – | > 100 |
| CC(C)(C)c1cc(-c2n[nH]c(=S)n2-c2ccc(Cl)cc2)n[nH]1 | > 100 µM (inactive) | – | > 100 |
| CN(C)C(=O)c1ccc(NC(=O)CSc2nc3ccccc3[nH]2)cc1 | > 100 µM (inactive) | – | > 100 |
| CC(=O)Nc1ccc(-c2ccnc3c2CC(C)(C(=O)Nc2ccc4c(c2)OCO4)O3)cc1 (centres undefined) | > 100 µM (inactive) | – | > 100 |
| O=C(Nc1cccc(O)c1)c1cccc(S(=O)(=O)Nc2cccc(O)c2)c1 | – | > 100 | – |
| CCCCNC(=O)c1onc(CSc2cc(C)cc(C)c2)c1C(=O)O | > 100 µM (inactive) | – | 28 |
| O=[N+]([O-])c1ccccc1Oc1ccc(Cl)c2cccnc12 | > 100 µM (inactive) | – | > 100 |
| COC(=O)c1cc2ccccc2n1S(=O)(=O)c1ccccc1 | – | > 100 | – |
| CCOc1ccc(OCC)c(NC(=O)CSc2nc3c(c(=O)n(C)c(=O)n3C)n2C(C)C)c1 | > 100 µM (inactive) | – | 45.5 |
| COc1ccc(S(=O)(=O)Cc2ccc(C(=O)N3CCN(c4cc(Cl)ccc4C)CC3)o2)cc1 | > 100 µM (inactive) | – | 49.9 |
| CCOc1ccc2oc(-c3ccccc3)c(C(=O)N(C)C)c2c1 | – | > 100 | – |
| COc1ccc(NC(=O)CCC(=O)c2cccs2)cc1S(=O)(=O)Nc1ccc(Cl)cc1 | > 100 µM (inactive) | – | > 100 |
| COc1ccc(OC)c(-c2csc(NC(=O)C3COc4ccccc4O3)n2)c1 (centres undefined) | > 100 µM (inactive) | – | > 100 |
| CC(=O)c1c(N2CCOCC2)nc2ccc(Cl)cc2c1-c1ccccc1 | > 100 µM (inactive) | – | > 100 |
| CCOC(=O)c1ccc(CC(=O)c2oc3cc(O)ccc3c2C)o1 | > 100 µM (inactive) | – | > 100 |
| O=C(Nc1ccc(Br)cc1)c1cccnc1N1CCCCC1 | – | > 100 | – |
| CCN(c1ccccc1)S(=O)(=O)c1ccc(Cl)c(C(=O)NCc2ccco2)c1 | > 100 µM (inactive) | – | 38.5 |
| CSc1c(-c2ccccn2)c(N)nn1C(=O)C1CC1 | > 100 µM (inactive) | – | > 100 |
| CCOc1cccc2sc(NC(=O)CC)nc12 | > 100 µM (inactive) | – | > 100 |
| CCOC(=O)c1c(C)nsc1NCc1ccccc1 | > 100 µM (inactive) | – | 30.9 |
